{
  "source": "patent US10265298B2",
  "about": "“Method of increasing the bioavailability of silybin” (Macau University of Science and Technology, priority 2017, dated 2019)",
  "key": {"[1]": {"conditions": "after oral administration; cited from earlier work"}, "[2]": {"test_system": "CCl4-induced acute liver injury", "test": "CCl4-induced acute liver injury in rats", "format": "in vivo, rat", "experimental": "Male SD rats were randomly divided into six groups: 1) Group I orally received blank vehicle for 7 days, and intraperitoneally (i.p.) injected with olive oil (2 ml/kg body weight) on day 7; 2) Group II orally received blank vehicle for 7 days, and injected with CCl4-olive oil mixture (40% CCl4, i.p., 2 ml/kg body weight) on day 7; 3) Group III was treated with silybin (100 mg/kg bodyweight, per os (p.o.) for 7 days, and injected with CCl4-olive oil mixture (40% CCl4, i.p., 2 ml/kg body weight) on day 7, 2 hour after administration of silybin; 4) Group IV was treated with silybin (100 mg/kg bodyweight, p.o.) and tangeretin (100 mg/kg bodyweight, p.o.) mixture for 7 days, and injected with CCl4-olive oil mixture (40% CCl4, i.p., 2 ml/kg body weight) on day 7, 2 hour after administration of the mixture; 5) Group V was treated with silybin (50 mg/kg bodyweight, p.o.) and tangeretin (50 mg/kg bodyweight, p.o.) mixture for 7 days, and injected with CCl4-olive oil mixture (40% CCl4, i.p., 2 ml/kg body weight) on day 7, 2 hour after administration of the mixture; 6) Group VI was treated with tangeretin (100 mg/kg bodyweight, p.o.) for 7 days, and injected with CCl4-olive oil mixture (40%, i.p., 2 ml/kg body weight) on day 7, 2 hour after administration of tangeretin. Model and control group were daily treated orally with blank solvent (35% PEG400: 15% Cremophor EL: 5% ethanol: 45% saline).\n24 hours after the CCl4-induced toxic liver injury was initiated, rats were sacrificed under ether anesthesia. Blood was collected from the abdominal aorta for biochemical estimations. The liver was immediately removed and weighed. A large portion of the liver was snap-frozen in the liquid nitrogen and the remaining tissue was fixed in 10% buffer formalin, processed and embedded in paraffin for histological examination after hematoxylin and eosin (H&E) staining. Steatohepatitis was evaluated by level of alanine aminotransferase (ALT), aspartate aminotransferase (AST), triglycerides, total cholesterol and superoxide dismutase (SOD) using commercial kits (Nanjing Jiancheng Bioengineering Institute, Nanjing, China) according to manufacturer's instructions and histological assessment and scoring according to standardized criteria by a pathologist blind to the study."}, "MCD diet-induced NASH": {"test_system": "MCD diet-induced NASH", "test": "MCD diet-induced nonalcoholic steatohepatitis (NASH) mouse model", "format": "in vivo", "from_the_text": "Male wild-type (WT) mice C571BI/6 were fed either methionine/choline-sufficient (MCS) chow diet (Trophic Animal Feed High-tech Co., Ltd, China) or MCD diet (Trophic Animal Feed High-tech Co., Ltd, China) for 7 weeks. Animals were randomly divided into eight groups: 1) control, fed a standard control MCS diet and given vehicle (35% polyethylene glycol (PEG) 400:15% Cremophor EL:5% ethanol:45% saline); 2) rats fed a MCD diet and given vehicle; 3) rats fed the MCD diet and orally treated with silybin (300 milligrams per kilogram (mg/kg)); 4) rats fed the MCD diet and orally treated with silybin (150 mg/kg); 5) rats fed the MCD diet and orally treated with tangeretin (150 mg/kg); 6) rats fed the MCD diet and orally treated with 75 mg/kg silybin and 75 mg/kg tangeretin (SB & TG—L); 7) rats fed the MCD diet and orally treated 150 mg/kg silybin and 150 mg/kg tangeretin (SB & TG—M); 8) rats fed the MCD diet and orally treated with 300 mg/kg silybin and […]. Body weight was intermittently monitored during the diet-induction period and every two or three days during the intervention period.\nAt the end of 8 weeks, mice were sacrificed under ether anesthesia. The following procedures are same as the description under “2.10 Effects of silybin on acute liver damage induced by CCl4 in rats”. The cytokine levels including tumor necrosis factor alpha (TNF-α) (eBioscience Inc, San Diego, Calif., USA), interleukin-6 (IL-6) assay kit (Raybiotech, Norcross, Ga., USA) in serum of NASH model were further measured using commercially available enzyme-linked immunosorbent assay (ELISA) kits."}},
  "data": [
    {"smiles": "COc1cc(C2Oc3cc([C@H]4Oc5cc(O)cc(O)c5C(=O)[C@@H]4O)ccc3OC2CO)ccc1O", "note": "(some centres unmarked) [silybin]", "values": [
      {"measurement": "share metabolized to glucuronide conjugates in human plasma", "setting": "[1]", "result": "about 55%"},
      {"measurement": "share metabolized to sulfate conjugates in human plasma", "setting": "[1]", "result": "about 28%"},
      {"measurement": "serum TG and TC levels", "setting": "[2]; 100 mg/kg of silybin, p<0.01", "result": "attenuated increases"},
      {"measurement": "CCl4-induced macroscopic and histopathological liver changes (H&E)", "setting": "[2]; 7 days oral pre-treatment, 24 hours after CCl4", "result": "less prominent"},
      {"measurement": "CCl4-induced increase of liver weight and liver to body weight ratio", "setting": "[2]; 7 days oral pre-treatment, 24 hours after CCl4, p<0.05", "result": "negated"},
      {"measurement": "CCl4-induced increase of serum activity of ALT and AST", "setting": "[2]; silybin 100 mg/kg for seven consecutive days", "result": "significantly prevented"},
      {"measurement": "MCD diet-induced TC and TG increase", "setting": "MCD diet-induced NASH; mice on MCD diet", "result": "clearly inhibited"},
      {"measurement": "body weight", "setting": "MCD diet-induced NASH; mice on MCD diet", "result": "slightly increased"},
      {"measurement": "lipid accumulation and inflammatory infiltration in liver (H&E)", "setting": "MCD diet-induced NASH; mice on MCD diet", "result": "decreased"},
      {"measurement": "liver/body weight ratio", "setting": "MCD diet-induced NASH; mice on MCD diet", "result": "moderate decrease"},
      {"measurement": "MCD diet-induced elevation of ALT, AST, MDA, SOD, GSH and GSH/GSSG ratio", "setting": "MCD diet-induced NASH; silybin 300 mg/kg, silybin-tangeretin treatment", "result": "suppressed"},
      {"measurement": "liver/body ratio", "setting": "MCD diet-induced NASH; silybin by co-treatment with tangeretin, FIG. 35A", "result": "significantly decreased"},
      {"measurement": "body weight and liver weight", "setting": "MCD diet-induced NASH; silybin by co-treatment with tangeretin, FIG. 35B, 35C", "result": "did not significantly affect"},
      {"measurement": "MCD diet-induced cytokines elevation (IL-1β, TNF-α, IL-6)", "setting": "MCD diet-induced NASH; silybin treatment in the absence or presence of tangeretin", "result": "suppressed"}
    ]}
  ]
}
